These compounds were tested against T1, CIB1 and αIIb interaction (GST-CIB1 : F-αIIb peptide) (Homo sapiens, UniProt Q99828) (assay: FP assay, 384-well format (screen)). Conditions: F-αIIb peptide.
T1 construct: made in house; host or cells: BL-21 plus RIL cells (E. coli)
T1 sequence (Q99828 1-191): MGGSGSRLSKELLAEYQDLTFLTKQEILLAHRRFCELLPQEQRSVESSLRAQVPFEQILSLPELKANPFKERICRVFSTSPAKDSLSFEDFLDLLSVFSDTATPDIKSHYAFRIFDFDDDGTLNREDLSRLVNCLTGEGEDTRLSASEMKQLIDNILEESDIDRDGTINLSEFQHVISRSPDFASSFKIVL
Assay type: binding
Parameters: 384-well SCREEN Efficacy (%): concentration or dose not given beside the values

Row | Compound | 384-well SCREEN Efficacy (%)
1 | CCC(=O)NC(c1cccs1)c1cc([N+](=O)[O-])c2cccnc2c1O (centres unmarked) [NCGC00182956-10] | 23
2 | C=CCNc1oc(-c2ccc(-c3ccccc3)cc2)nc1C#N.O=C(O)C(F)(F)F [NCGC00183413-01] | 74
3 | CCc1ccc(/C=C2/SC(=S)NC2=O)cc1 [NCGC00185994-01] | 44
4 | COC(=O)[C@]12CCC(C)(C)C[C@H]1[C@H]1C(=O)C=C3[C@@]4(C)C=C(C#N)C(=O)C(C)(C)[C@@H]4CC[C@@]3(C)[C@]1(C)CC2 [NCGC00186460-01] | 77

Same assay, conditions: F-αIIb peptide; YES/NO

Row | Compound | 384-well SCREEN Confirm?
5 | C=CCNc1oc(-c2ccc(-c3ccccc3)cc2)nc1C#N.O=C(O)C(F)(F)F [NCGC00183413-01] | YES
6 | CCc1ccc(/C=C2/SC(=S)NC2=O)cc1 [NCGC00185994-01] | YES
7 | COC(=O)[C@]12CCC(C)(C)C[C@H]1[C@H]1C(=O)C=C3[C@@]4(C)C=C(C#N)C(=O)C(C)(C)[C@@H]4CC[C@@]3(C)[C@]1(C)CC2 [NCGC00186460-01] | YES

Same assay, conditions: F-αIIb peptide; read-out: 384-well SCREEN IC50

Row | Compound | IC50 [µM]
8 | CCC(=O)NC(c1cccs1)c1cc([N+](=O)[O-])c2cccnc2c1O (centres unmarked) [NCGC00182956-10] | > 120
9 | C=CCNc1oc(-c2ccc(-c3ccccc3)cc2)nc1C#N.O=C(O)C(F)(F)F [NCGC00183413-01] | 7.1
10 | CCc1ccc(/C=C2/SC(=S)NC2=O)cc1 [NCGC00185994-01] | 17.8
11 | COC(=O)[C@]12CCC(C)(C)C[C@H]1[C@H]1C(=O)C=C3[C@@]4(C)C=C(C#N)C(=O)C(C)(C)[C@@H]4CC[C@@]3(C)[C@]1(C)CC2 [NCGC00186460-01] | 3.5

Each compound was assayed against T2, GST-CIB1 : F-scrambled peptide (Homo sapiens, UniProt Q99828) (assay: FP scrambled-peptide counter screen, 1536-well format). Conditions: scrambled-peptide counterscreen.
T2 construct: made in house; host or cells: BL-21 plus RIL cells (E. coli)
T2 sequence (Q99828 1-191): T1 sequence (Q99828 1-191)
Assay type: binding

Row | Compound | COUNTERSCREEN Efficacy (%)
12 | CCC(=O)NC(c1cccs1)c1cc([N+](=O)[O-])c2cccnc2c1O (centres unmarked) [NCGC00182956-10] | -17
13 | C=CCNc1oc(-c2ccc(-c3ccccc3)cc2)nc1C#N.O=C(O)C(F)(F)F [NCGC00183413-01] | -17
14 | CCc1ccc(/C=C2/SC(=S)NC2=O)cc1 [NCGC00185994-01] | 0
15 | COC(=O)[C@]12CCC(C)(C)C[C@H]1[C@H]1C(=O)C=C3[C@@]4(C)C=C(C#N)C(=O)C(C)(C)[C@@H]4CC[C@@]3(C)[C@]1(C)CC2 [NCGC00186460-01] | -36

Same assay, conditions: scrambled-peptide counterscreen, YES/NO call

Row | Compound | COUNTERSCREEN Confirm?
16 | CCC(=O)NC(c1cccs1)c1cc([N+](=O)[O-])c2cccnc2c1O (centres unmarked) [NCGC00182956-10] | YES
17 | C=CCNc1oc(-c2ccc(-c3ccccc3)cc2)nc1C#N.O=C(O)C(F)(F)F [NCGC00183413-01] | YES
18 | CCc1ccc(/C=C2/SC(=S)NC2=O)cc1 [NCGC00185994-01] | YES
19 | COC(=O)[C@]12CCC(C)(C)C[C@H]1[C@H]1C(=O)C=C3[C@@]4(C)C=C(C#N)C(=O)C(C)(C)[C@@H]4CC[C@@]3(C)[C@]1(C)CC2 [NCGC00186460-01] | YES

Same assay, conditions: scrambled-peptide counterscreen, qHTS curve class

Row | Compound | COUNTERSCREEN Curve Class
20 | CCC(=O)NC(c1cccs1)c1cc([N+](=O)[O-])c2cccnc2c1O (centres unmarked) [NCGC00182956-10] | 4
21 | C=CCNc1oc(-c2ccc(-c3ccccc3)cc2)nc1C#N.O=C(O)C(F)(F)F [NCGC00183413-01] | 4
22 | CCc1ccc(/C=C2/SC(=S)NC2=O)cc1 [NCGC00185994-01] | 4
23 | COC(=O)[C@]12CCC(C)(C)C[C@H]1[C@H]1C(=O)C=C3[C@@]4(C)C=C(C#N)C(=O)C(C)(C)[C@@H]4CC[C@@]3(C)[C@]1(C)CC2 [NCGC00186460-01] | -1.2

Same assay, conditions: scrambled-peptide counterscreen; read-out: COUNTERSCREEN IC50

Row | Compound | IC50 [µM]
24 | COC(=O)[C@]12CCC(C)(C)C[C@H]1[C@H]1C(=O)C=C3[C@@]4(C)C=C(C#N)C(=O)C(C)(C)[C@@H]4CC[C@@]3(C)[C@]1(C)CC2 [NCGC00186460-01] | 14.1

Each compound was assayed against T3, CIB1 and αIIb interaction (CIB1-GST : F-αIIb peptide) (Homo sapiens, UniProt Q99828) (assay: FP assay, 1536-well qHTS format (primary and confirmatory screen)). Conditions: confirmatory screen, YES/NO call.
T3 construct: made in house; host or cells: BL-21 plus RIL cells (E. coli)
T3 sequence (Q99828 1-191): T1 sequence (Q99828 1-191)
Assay type: binding

Row | Compound | CONFIRMATORY SCREEN Confirm?
25 | CCC(=O)NC(c1cccs1)c1cc([N+](=O)[O-])c2cccnc2c1O (centres unmarked) [NCGC00182956-10] | YES
26 | C=CCNc1oc(-c2ccc(-c3ccccc3)cc2)nc1C#N.O=C(O)C(F)(F)F [NCGC00183413-01] | YES
27 | CCc1ccc(/C=C2/SC(=S)NC2=O)cc1 [NCGC00185994-01] | YES
28 | COC(=O)[C@]12CCC(C)(C)C[C@H]1[C@H]1C(=O)C=C3[C@@]4(C)C=C(C#N)C(=O)C(C)(C)[C@@H]4CC[C@@]3(C)[C@]1(C)CC2 [NCGC00186460-01] | YES

Same assay, conditions: confirmatory screen, qHTS curve class; negative sign = inhibitory curve

Row | Compound | CONFIRMATORY SCREEN Curve Class
29 | CCC(=O)NC(c1cccs1)c1cc([N+](=O)[O-])c2cccnc2c1O (centres unmarked) [NCGC00182956-10] | -3
30 | C=CCNc1oc(-c2ccc(-c3ccccc3)cc2)nc1C#N.O=C(O)C(F)(F)F [NCGC00183413-01] | -1.2
31 | CCc1ccc(/C=C2/SC(=S)NC2=O)cc1 [NCGC00185994-01] | -1.1
32 | COC(=O)[C@]12CCC(C)(C)C[C@H]1[C@H]1C(=O)C=C3[C@@]4(C)C=C(C#N)C(=O)C(C)(C)[C@@H]4CC[C@@]3(C)[C@]1(C)CC2 [NCGC00186460-01] | -1.2

Same assay, conditions: confirmatory screen; negative = inhibition

Row | Compound | CONFIRMATORY SCREEN Efficacy (%)
33 | CCC(=O)NC(c1cccs1)c1cc([N+](=O)[O-])c2cccnc2c1O (centres unmarked) [NCGC00182956-10] | -53
34 | C=CCNc1oc(-c2ccc(-c3ccccc3)cc2)nc1C#N.O=C(O)C(F)(F)F [NCGC00183413-01] | -66
35 | CCc1ccc(/C=C2/SC(=S)NC2=O)cc1 [NCGC00185994-01] | -93
36 | COC(=O)[C@]12CCC(C)(C)C[C@H]1[C@H]1C(=O)C=C3[C@@]4(C)C=C(C#N)C(=O)C(C)(C)[C@@H]4CC[C@@]3(C)[C@]1(C)CC2 [NCGC00186460-01] | -71

Same assay, conditions: confirmatory screen; read-out: CONFIRMATORY SCREEN IC50

Row | Compound | IC50 [µM]
37 | CCC(=O)NC(c1cccs1)c1cc([N+](=O)[O-])c2cccnc2c1O (centres unmarked) [NCGC00182956-10] | 50.1
38 | C=CCNc1oc(-c2ccc(-c3ccccc3)cc2)nc1C#N.O=C(O)C(F)(F)F [NCGC00183413-01] | 17.8
39 | CCc1ccc(/C=C2/SC(=S)NC2=O)cc1 [NCGC00185994-01] | 8.9
40 | COC(=O)[C@]12CCC(C)(C)C[C@H]1[C@H]1C(=O)C=C3[C@@]4(C)C=C(C#N)C(=O)C(C)(C)[C@@H]4CC[C@@]3(C)[C@]1(C)CC2 [NCGC00186460-01] | 7.1

Same assay, conditions: qHTS FP screen hits, Table S2; negative = inhibition

Row | Efficacy (%) | Compound
41 | -51 | CCC(=O)NC(c1cccs1)c1cc([N+](=O)[O-])c2cccnc2c1O (centres unmarked) [NCGC00182956-10]
42 | -43 | CCc1ccc(/C=C2/SC(=S)NC2=O)cc1 [NCGC00185994-01]

Row | Compound | Efficacy (%)
43 | COC(=O)[C@]12CCC(C)(C)C[C@H]1[C@H]1C(=O)C=C3[C@@]4(C)C=C(C#N)C(=O)C(C)(C)[C@@H]4CC[C@@]3(C)[C@]1(C)CC2 [NCGC00186460-01] | -24

Same assay, conditions: qHTS FP screen hits, Table S2; read-out: IC50

Row | IC50 [µM] | Compound
44 | 46.6 | CCC(=O)NC(c1cccs1)c1cc([N+](=O)[O-])c2cccnc2c1O (centres unmarked) [NCGC00182956-10]
45 | 8.2 | CCc1ccc(/C=C2/SC(=S)NC2=O)cc1 [NCGC00185994-01]

Row | Compound | IC50 [µM]
46 | COC(=O)[C@]12CCC(C)(C)C[C@H]1[C@H]1C(=O)C=C3[C@@]4(C)C=C(C#N)C(=O)C(C)(C)[C@@H]4CC[C@@]3(C)[C@]1(C)CC2 [NCGC00186460-01] | 10.8

Same assay, conditions: qHTS primary screen hits, Table S2; negative = inhibition

Row | Compound | Efficacy (%)
47 | C=CCNc1oc(-c2ccc(-c3ccccc3)cc2)nc1C#N.O=C(O)C(F)(F)F [NCGC00183413-01] | -28

Same assay, conditions: qHTS primary screen hits, Table S2; negative sign = inhibitory curve; several classes where COUNT > 1

Row | Compound | Curve Class
48 | C=CCNc1oc(-c2ccc(-c3ccccc3)cc2)nc1C#N.O=C(O)C(F)(F)F [NCGC00183413-01] | -1.4

Same assay, conditions: qHTS primary screen hits, Table S2; read-out: IC50

Row | Compound | IC50 [µM]
49 | C=CCNc1oc(-c2ccc(-c3ccccc3)cc2)nc1C#N.O=C(O)C(F)(F)F [NCGC00183413-01] | 10

What follows are compounds tested against T2, GST-CIB1 : F-scrambled peptide (assay: FP scrambled-peptide counter screen, 384-well format). Conditions: F-scrambled peptide.
Assay type: binding

Row | Compound | 384-well COUNTERSCREEN Efficacy (%)
50 | CCC(=O)NC(c1cccs1)c1cc([N+](=O)[O-])c2cccnc2c1O (centres unmarked) [NCGC00182956-10] | 47
51 | C=CCNc1oc(-c2ccc(-c3ccccc3)cc2)nc1C#N.O=C(O)C(F)(F)F [NCGC00183413-01] | 58
52 | CCc1ccc(/C=C2/SC(=S)NC2=O)cc1 [NCGC00185994-01] | 68
53 | COC(=O)[C@]12CCC(C)(C)C[C@H]1[C@H]1C(=O)C=C3[C@@]4(C)C=C(C#N)C(=O)C(C)(C)[C@@H]4CC[C@@]3(C)[C@]1(C)CC2 [NCGC00186460-01] | 29

Same assay, conditions: F-scrambled peptide; *: Curve in opposite direction

Row | Compound | 384-well COUNTERSCREEN Confirm?
54 | CCc1ccc(/C=C2/SC(=S)NC2=O)cc1 [NCGC00185994-01] | YES
55 | COC(=O)[C@]12CCC(C)(C)C[C@H]1[C@H]1C(=O)C=C3[C@@]4(C)C=C(C#N)C(=O)C(C)(C)[C@@H]4CC[C@@]3(C)[C@]1(C)CC2 [NCGC00186460-01] | YES

Same assay, conditions: F-scrambled peptide; read-out: 384-well COUNTERSCREEN IC50

Row | Compound | IC50 [µM]
56 | CCC(=O)NC(c1cccs1)c1cc([N+](=O)[O-])c2cccnc2c1O (centres unmarked) [NCGC00182956-10] | 17.7
57 | C=CCNc1oc(-c2ccc(-c3ccccc3)cc2)nc1C#N.O=C(O)C(F)(F)F [NCGC00183413-01] | 7.1
58 | CCc1ccc(/C=C2/SC(=S)NC2=O)cc1 [NCGC00185994-01] | > 120
59 | COC(=O)[C@]12CCC(C)(C)C[C@H]1[C@H]1C(=O)C=C3[C@@]4(C)C=C(C#N)C(=O)C(C)(C)[C@@H]4CC[C@@]3(C)[C@]1(C)CC2 [NCGC00186460-01] | > 120
